Measured values: publication PMC2948534 (American journal of respiratory cell and molecular biology, 2005)
Ends that are not written are not given here.

How the values were obtained:
A549 epithelial cells = test: LDH release; type: cell-based, human; conditions: for effect of receptor inhibitor on LL-37-induced LDH release: 1 h pretreatment (pertussis toxin 100 ng/ml; PD1683 2 μM; AG1478 1 μM), then 50 μg/ml LL-37 for 24 h, DMEM without serum
[1] = tested on: airway epithelial or monocyte-like cell line; conditions: presence of FBS; cited from earlier work

COc1cc2ncnc(Nc3cccc(Cl)c3)c2cc1OC [AG1478]
effect of receptor inhibitor on LL-37-induced LDH release (A549 epithelial cells): No decrease in LDH release

C=CC(=O)Nc1ccc2ncnc(Nc3cccc(Br)c3)c2c1 [PD1683]
effect of receptor inhibitor on LL-37-induced LDH release (A549 epithelial cells): No decrease in LDH release

CRAMP
LDH release effects at >100 μg/ml in the presence of human serum (A549 epithelial cells; 10% human serum, data not shown): similarly suppressed | cell death compared with LL-37 (A549 epithelial cells; A549 cells): induced significantly less cell death than LL-37 | concentrations at which no statistically significant LDH release was observed (A549 epithelial cells; data not shown): < 100 µg/mL

indolicidin: cathelicidin peptide (ILPWKWPWWPWRR; ends and bridges not checked; UniProt P33046 131-143, looked up)
induction of cell death [1]: do not induce cell death

pertussis toxin
effect of receptor inhibitor on LL-37-induced LDH release (A549 epithelial cells): No decrease in LDH release
